# Tested on: NK cells
# Assay: Production of cytokines, growth factors and chemokines by NK cells treated with bacterial strains (Bio-Plex 27-plex)
# Assay type: cell-based, human
# Set-up: unit not given here
# Method: Different strains of probiotic bacteria were tested for their ability to induce IFN-g as well as a number of important cytokines, chemokines and growth factors (Table 1). To assess the levels of each strain used in the combination we used an activation index established in the lab for the NK cells which consisted of the use of a specific ratio of several important cytokines and chemokines that prevented auto-immunity while enhancing significant activation of NK cells under pathologic conditions. Therefore, the strains were selected to: 1) provide regulated activation of NK cells when no activation of NK cells is desired; 2) when activated by cytokines and/or cross-linking of the important receptors which occurs during functional activation of NK cells in cancer is to induce maximal activation of NK cells; and 3) provide diversity for gut microflora. These criteria allow us to use bacteria to regulate the gut mucosal immunity in such a way that we will only increase NK activation when needed during infections or malignancies. In other words when there is no need for function of NK cells bacteria will regulate NK function to not induce inflammation; however, during need which occurs under the pathological conditions NK cells are triggered to function at the maximal levels. Such coordinated regulation of NK cell function should be effective in halting unwanted inflammation while providing effective and maximal immunity during disease.
# Written informed consents, approved by UCLA Institutional Review Board (IRB), were obtained from healthy blood donors, and all procedures were approved by the UCLA-IRB. Peripheral blood was separated using Ficoll-Hypaque centrifugation, after which the white, cloudy layer, containing peripheral blood mononuclear cells (PBMC), was harvested, washed and re-suspended in RPMI 1640 (Invitrogen by Life Technologies, CA) supplemented with 10% FBS and plated on plastic tissue culture dishes. After 1-2 hours of incubation, non-adherent, human peripheral blood lymphocytes (PBL) were collected. NK cells were negatively selected and isolated from PBLs using the EasySep® Human NK cell enrichment kit purchased from Stem Cell Technologies (Vancouver, BC, Canada). Isolated NK cells were stained with anti-CD16 antibody, to measure NK cell purity using flow cytometric analysis. The isolated NK cell population was greater than 90% purity. Purified NK cells were cultured in RPMI Medium 1640 supplemented with 10% FBS (Gemini Bio-Products, CA), 1% antibiotic antimycotic, 1% sodium pyruvate, and 1% MEM non-essential amino acids (Invitrogen, Life Technologies, CA).
# Purified NK cells from healthy donors were left untreated or treated with IL-2 (1000 units/ml) or the combination of anti-CD16 mAb (3 μg/ml) and IL-2 (1000 units/ml) in the presence or absence of bacterial strains at 1:5 ratio (NK cell: bacteria) for 12-18 hours. Afterwards, the levels of cytokines, growth factors and chemokines were determined using Bio-Plex Pro Human Cytokine 27-plex Assay Kit.
# [1] = Treatment NK (no activation), bacteria 1:5 NK cell:bacteria, 12-18 hours
# [2] = Treatment NK + IL-2 (1000 units/ml), bacteria 1:5, 12-18 hours
# [3] = Treatment NK + IL-2 + anti-CD16 mAb (3 μg/ml), bacteria 1:5, 12-18 hours
substance,measurement,setting,value
Lactobacillus acidophilus [L. acidophilus],Eotaxin,[1],16
same,G-CSF,[1],141
same,GM-CSF,[1],110
same,IFN-γ,[1],366
same,IL-1B,[1],819
same,IL-1ra,[1],181
same,IL-6,[1],10357
same,IL-8,[1],6879
same,IL-10,[1],62
same,IL-12p70,[1],299
same,IL-13,[1],5
same,IL-17,[1],63
same,IP-10,[1],77
same,MCP-1,[1],400
same,RANTES,[1],2553
same,TNF-α,[1],6858
same,Eotaxin,[2],21
same,G-CSF,[2],89
same,GM-CSF,[2],127
same,IFN-γ,[2],1329
same,IL-1B,[2],335
same,IL-1ra,[2],487
same,IL-6,[2],2095
same,IL-8,[2],1116
same,IL-10,[2],17
same,IL-12p70,[2],136
same,IL-13,[2],8
same,IL-17,[2],63
same,IP-10,[2],51
same,MCP-1,[2],112
same,RANTES,[2],2353
same,TNF-α,[2],1151
same,Eotaxin,[3],31
same,G-CSF,[3],102
same,GM-CSF,[3],199
same,IFN-γ,[3],2715
same,IL-1B,[3],654
same,IL-1ra,[3],493
same,IL-6,[3],3684
same,IL-8,[3],2004
same,IL-10,[3],24
same,IL-12p70,[3],155
same,IL-13,[3],23
same,IL-17,[3],73
same,IP-10,[3],69
same,MCP-1,[3],289
same,RANTES,[3],3999
same,TNF-α,[3],5663
Bifidobacterium breve [B. breve],Eotaxin,[1],15
same,G-CSF,[1],363
same,GM-CSF,[1],101
same,IFN-γ,[1],99
same,IL-1B,[1],200
same,IL-1ra,[1],196
same,IL-6,[1],9726
same,IL-8,[1],3975
same,IL-10,[1],127
same,IL-12p70,[1],10
same,IL-13,[1],5
same,IL-17,[1],53
same,IP-10,[1],32
same,MCP-1,[1],265
same,RANTES,[1],1662
same,TNF-α,[1],2904
same,Eotaxin,[2],22
same,G-CSF,[2],138
same,GM-CSF,[2],127
same,IFN-γ,[2],284
same,IL-1B,[2],165
same,IL-1ra,[2],470
same,IL-6,[2],3402
same,IL-8,[2],1912
same,IL-10,[2],36
same,IL-12p70,[2],21
same,IL-13,[2],9
same,IL-17,[2],57
same,IP-10,[2],35
same,MCP-1,[2],72
same,RANTES,[2],1988
same,TNF-α,[2],1868
same,Eotaxin,[3],29
same,G-CSF,[3],289
same,GM-CSF,[3],180
same,IFN-γ,[3],844
same,IL-1B,[3],421
same,IL-1ra,[3],565
same,IL-6,[3],7261
same,IL-8,[3],4929
same,IL-10,[3],68
same,IL-12p70,[3],26
same,IL-13,[3],28
same,IL-17,[3],72
same,IP-10,[3],55
same,MCP-1,[3],153
same,RANTES,[3],3934
same,TNF-α,[3],1498
Bifidobacterium longum [B. longum],Eotaxin,[1],32
same,G-CSF,[1],938
same,GM-CSF,[1],131
same,IFN-γ,[1],158
same,IL-1B,[1],813
same,IL-1ra,[1],312
same,IL-6,[1],60895
same,IL-8,[1],9507
same,IL-10,[1],298
same,IL-12p70,[1],42
same,IL-13,[1],9
same,IL-17,[1],74
same,IP-10,[1],38
same,MCP-1,[1],80
same,RANTES,[1],2325
same,TNF-α,[1],5880
same,Eotaxin,[2],33
same,G-CSF,[2],244
same,GM-CSF,[2],135
same,IFN-γ,[2],671
same,IL-1B,[2],408
same,IL-1ra,[2],472
same,IL-6,[2],7287
same,IL-8,[2],2195
same,IL-10,[2],52
same,IL-12p70,[2],47
same,IL-13,[2],11
same,IL-17,[2],73
same,IP-10,[2],46
same,MCP-1,[2],33
same,RANTES,[2],2189
same,TNF-α,[2],2896
same,Eotaxin,[3],28
same,G-CSF,[3],386
same,GM-CSF,[3],158
same,IFN-γ,[3],1282
same,IL-1B,[3],498
same,IL-1ra,[3],461
same,IL-6,[3],2916
same,IL-8,[3],2906
same,IL-10,[3],68
same,IL-12p70,[3],33
same,IL-13,[3],19
same,IL-17,[3],69
same,IP-10,[3],42
same,MCP-1,[3],75
same,RANTES,[3],1088
same,TNF-α,[3],4240
Lactobacillus bulgaricus [L. bulgaricus],Eotaxin,[1],7
same,G-CSF,[1],77
same,GM-CSF,[1],121
same,IFN-γ,[1],144
same,IL-1B,[1],293
same,IL-1ra,[1],112
same,IL-6,[1],2518
same,IL-8,[1],4501
same,IL-10,[1],22
same,IL-12p70,[1],25
same,IL-13,[1],9
same,IL-17,[1],49
same,IP-10,[1],88
same,MCP-1,[1],609
same,RANTES,[1],3804
same,TNF-α,[1],868
same,Eotaxin,[2],15
same,G-CSF,[2],69
same,GM-CSF,[2],120
same,IFN-γ,[2],381
same,IL-1B,[2],123
same,IL-1ra,[2],449
same,IL-6,[2],837
same,IL-8,[2],1997
same,IL-10,[2],12
same,IL-12p70,[2],21
same,IL-13,[2],10
same,IL-17,[2],55
same,IP-10,[2],78
same,MCP-1,[2],313
same,RANTES,[2],4737
same,TNF-α,[2],439
same,Eotaxin,[3],6
same,G-CSF,[3],59
same,GM-CSF,[3],136
same,IFN-γ,[3],306
same,IL-1B,[3],141
same,IL-1ra,[3],383
same,IL-6,[3],685
same,IL-8,[3],1819
same,IL-10,[3],9
same,IL-12p70,[3],5
same,IL-13,[3],8
same,IL-17,[3],50
same,IP-10,[3],72
same,MCP-1,[3],305
same,RANTES,[3],4062
same,TNF-α,[3],1064
Lactobacillus plantarum [L. plantarum],Eotaxin,[1],36
same,G-CSF,[1],236
same,GM-CSF,[1],122
same,IFN-γ,[1],282
same,IL-1B,[1],645
same,IL-1ra,[1],323
same,IL-6,[1],9500
same,IL-8,[1],17756
same,IL-10,[1],85
same,IL-12p70,[1],130
same,IL-13,[1],8
same,IL-17,[1],78
same,IP-10,[1],140
same,MCP-1,[1],958
same,RANTES,[1],22609
same,TNF-α,[1],13887
same,Eotaxin,[2],36
same,G-CSF,[2],129
same,GM-CSF,[2],181
same,IFN-γ,[2],5484
same,IL-1B,[2],466
same,IL-1ra,[2],500
same,IL-6,[2],4212
same,IL-8,[2],3415
same,IL-10,[2],43
same,IL-12p70,[2],184
same,IL-13,[2],14
same,IL-17,[2],73
same,IP-10,[2],115
same,MCP-1,[2],427
same,RANTES,[2],1923
same,TNF-α,[2],9223
same,Eotaxin,[3],40
same,G-CSF,[3],125
same,GM-CSF,[3],216
same,IFN-γ,[3],3087
same,IL-1B,[3],714
same,IL-1ra,[3],575
same,IL-6,[3],3679
same,IL-8,[3],3247
same,IL-10,[3],37
same,IL-12p70,[3],155
same,IL-13,[3],20
same,IL-17,[3],78
same,IP-10,[3],92
same,MCP-1,[3],335
same,RANTES,[3],4147
same,TNF-α,[3],7942
Bifidobacterium infantis [B. infantis],Eotaxin,[1],18
same,G-CSF,[1],145
same,GM-CSF,[1],123
same,IFN-γ,[1],275
same,IL-1B,[1],249
same,IL-1ra,[1],179
same,IL-6,[1],6136
same,IL-8,[1],4265
same,IL-10,[1],55
same,IL-12p70,[1],66
same,IL-13,[1],1
same,IL-17,[1],56
same,IP-10,[1],57
same,MCP-1,[1],451
same,RANTES,[1],2234
same,TNF-α,[1],5728
same,Eotaxin,[2],19
same,G-CSF,[2],190
same,GM-CSF,[2],163
same,IFN-γ,[2],3073
same,IL-1B,[2],422
same,IL-1ra,[2],459
same,IL-6,[2],6618
same,IL-8,[2],5090
same,IL-10,[2],41
same,IL-12p70,[2],115
same,IL-13,[2],19
same,IL-17,[2],72
same,IP-10,[2],113
same,MCP-1,[2],382
same,RANTES,[2],3225
same,TNF-α,[2],5103
same,Eotaxin,[3],32
same,G-CSF,[3],151
same,GM-CSF,[3],178
same,IFN-γ,[3],1250
same,IL-1B,[3],365
same,IL-1ra,[3],434
same,IL-6,[3],3927
same,IL-8,[3],3557
same,IL-10,[3],34
same,IL-12p70,[3],47
same,IL-13,[3],22
same,IL-17,[3],65
same,IP-10,[3],88
same,MCP-1,[3],360
same,RANTES,[3],2646
same,TNF-α,[3],5287

# Source: US12156893B2, “Oral composition comprising lactic acid bacteria for regulating immune responses and methods related thereto” (The Regents of the University of California, priority 2016, dated 2024)
